Assay results: patent US12258327B2, “5-membered heteroaryl-containing aminopyridine compounds as EGFR inhibitors” (YUHAN CORPORATION, priority 2021, dated 2025)
Read-outs that look alike come from different tables or passages of the source.

Experiments:
EGFR L858R/C797S = EGFR L858R/C797S (Homo sapiens, UniProt P00533, C797S/L858R); assay: Biochemical EGFR kinase assay (Lance Ultra TR-FRET), double mutant L858R/C797S
Summary of the method: (§1)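 Enzyme reactions lasted 1 hour at room temperature with test compounds between 0.003 and 10 μM, followed by 10 mM EDTA quench.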

EGFR wildtype (WT) = EGFR wildtype (WT) (Homo sapiens, UniProt P00533); assay: Biochemical EGFR kinase assay (Lance Ultra TR-FRET), wildtype
Sequence of EGFR wildtype (WT) (P00533 25-1210): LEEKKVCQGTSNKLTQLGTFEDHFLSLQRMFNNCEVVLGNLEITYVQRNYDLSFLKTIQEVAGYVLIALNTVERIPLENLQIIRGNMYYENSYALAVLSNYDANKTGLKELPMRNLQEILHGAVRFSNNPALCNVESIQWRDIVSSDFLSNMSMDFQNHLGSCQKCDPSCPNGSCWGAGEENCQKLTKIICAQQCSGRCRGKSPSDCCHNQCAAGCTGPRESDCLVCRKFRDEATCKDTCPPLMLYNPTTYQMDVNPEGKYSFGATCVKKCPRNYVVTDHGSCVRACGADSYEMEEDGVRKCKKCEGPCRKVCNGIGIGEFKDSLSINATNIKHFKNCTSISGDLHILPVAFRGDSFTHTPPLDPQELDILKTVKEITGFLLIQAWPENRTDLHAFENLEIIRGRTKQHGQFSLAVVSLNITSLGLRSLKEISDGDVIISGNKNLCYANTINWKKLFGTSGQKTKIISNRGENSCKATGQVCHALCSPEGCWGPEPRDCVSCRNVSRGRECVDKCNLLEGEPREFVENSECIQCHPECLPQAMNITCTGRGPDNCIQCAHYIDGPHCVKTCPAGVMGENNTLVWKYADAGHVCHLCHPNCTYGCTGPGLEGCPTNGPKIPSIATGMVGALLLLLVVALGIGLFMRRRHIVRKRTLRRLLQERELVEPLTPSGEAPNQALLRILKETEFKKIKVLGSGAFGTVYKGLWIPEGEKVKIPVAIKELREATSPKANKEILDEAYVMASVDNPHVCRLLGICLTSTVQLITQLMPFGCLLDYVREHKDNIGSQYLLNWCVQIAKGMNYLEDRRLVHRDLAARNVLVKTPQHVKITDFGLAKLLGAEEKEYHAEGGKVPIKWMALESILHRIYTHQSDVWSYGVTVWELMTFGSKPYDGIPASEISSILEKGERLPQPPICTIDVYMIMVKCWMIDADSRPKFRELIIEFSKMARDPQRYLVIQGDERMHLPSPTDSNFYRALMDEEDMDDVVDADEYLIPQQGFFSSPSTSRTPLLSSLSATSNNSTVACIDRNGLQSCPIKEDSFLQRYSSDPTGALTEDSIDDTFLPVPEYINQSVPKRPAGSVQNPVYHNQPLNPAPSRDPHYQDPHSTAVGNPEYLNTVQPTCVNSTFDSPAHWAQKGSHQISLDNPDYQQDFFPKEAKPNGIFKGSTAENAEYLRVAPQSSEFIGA
Summary of the method: as §1

EGFR L858R/T790M/C797S = EGFR L858R/T790M/C797S (Homo sapiens, UniProt P00533, C797S/L858R/T790M); assay: Biochemical EGFR kinase assay (Lance Ultra TR-FRET), triple mutant L858R/T790M/C797S
Sequence of EGFR L858R/T790M/C797S (P00533 25-1210 T790M/C797S/L858R): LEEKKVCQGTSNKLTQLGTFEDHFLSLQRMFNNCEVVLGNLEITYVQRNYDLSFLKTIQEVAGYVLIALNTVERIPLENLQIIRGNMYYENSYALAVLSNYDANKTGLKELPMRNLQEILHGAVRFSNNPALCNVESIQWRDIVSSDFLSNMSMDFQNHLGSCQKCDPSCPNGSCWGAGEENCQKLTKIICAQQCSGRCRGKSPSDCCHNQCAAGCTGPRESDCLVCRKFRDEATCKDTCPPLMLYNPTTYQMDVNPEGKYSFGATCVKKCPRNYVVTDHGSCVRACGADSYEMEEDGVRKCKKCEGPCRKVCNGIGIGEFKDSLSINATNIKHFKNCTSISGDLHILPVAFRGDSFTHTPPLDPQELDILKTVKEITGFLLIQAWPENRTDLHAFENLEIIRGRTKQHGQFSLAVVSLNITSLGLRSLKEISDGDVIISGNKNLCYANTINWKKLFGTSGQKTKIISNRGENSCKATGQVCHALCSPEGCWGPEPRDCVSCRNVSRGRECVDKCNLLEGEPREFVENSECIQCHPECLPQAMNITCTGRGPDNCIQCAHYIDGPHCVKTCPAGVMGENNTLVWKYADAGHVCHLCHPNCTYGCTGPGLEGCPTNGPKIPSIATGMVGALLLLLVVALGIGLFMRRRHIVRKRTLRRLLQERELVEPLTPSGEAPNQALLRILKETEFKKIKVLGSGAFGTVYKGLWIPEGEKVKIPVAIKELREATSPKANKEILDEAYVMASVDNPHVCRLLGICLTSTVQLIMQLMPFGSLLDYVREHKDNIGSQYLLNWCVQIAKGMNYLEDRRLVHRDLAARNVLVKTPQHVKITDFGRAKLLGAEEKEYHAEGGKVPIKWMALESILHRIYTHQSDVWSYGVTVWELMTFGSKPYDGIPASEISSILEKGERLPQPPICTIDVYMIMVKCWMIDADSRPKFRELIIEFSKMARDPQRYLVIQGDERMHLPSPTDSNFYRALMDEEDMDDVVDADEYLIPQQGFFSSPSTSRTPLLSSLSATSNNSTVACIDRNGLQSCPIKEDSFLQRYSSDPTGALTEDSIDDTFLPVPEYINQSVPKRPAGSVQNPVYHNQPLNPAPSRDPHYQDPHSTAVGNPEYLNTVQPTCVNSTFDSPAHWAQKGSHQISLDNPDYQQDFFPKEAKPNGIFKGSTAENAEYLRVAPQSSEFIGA
Summary of the method: as §1

EGFR del19/T790M/C797S = EGFR del19/T790M/C797S (Homo sapiens, UniProt P00533, C797S/DEL746-750/T790M); assay: Biochemical EGFR kinase assay (Lance Ultra TR-FRET), triple mutant del19/T790M/C797S
Summary of the method: as §1

EGFR del19/C797S = EGFR del19/C797S (Homo sapiens, UniProt P00533, C797S/DEL746-750); assay: Biochemical EGFR kinase assay (Lance Ultra TR-FRET), double mutant del19/C797S
Sequence of EGFR del19/C797S (P00533 with tags, fused parts or gaps DEL746-750/C797S): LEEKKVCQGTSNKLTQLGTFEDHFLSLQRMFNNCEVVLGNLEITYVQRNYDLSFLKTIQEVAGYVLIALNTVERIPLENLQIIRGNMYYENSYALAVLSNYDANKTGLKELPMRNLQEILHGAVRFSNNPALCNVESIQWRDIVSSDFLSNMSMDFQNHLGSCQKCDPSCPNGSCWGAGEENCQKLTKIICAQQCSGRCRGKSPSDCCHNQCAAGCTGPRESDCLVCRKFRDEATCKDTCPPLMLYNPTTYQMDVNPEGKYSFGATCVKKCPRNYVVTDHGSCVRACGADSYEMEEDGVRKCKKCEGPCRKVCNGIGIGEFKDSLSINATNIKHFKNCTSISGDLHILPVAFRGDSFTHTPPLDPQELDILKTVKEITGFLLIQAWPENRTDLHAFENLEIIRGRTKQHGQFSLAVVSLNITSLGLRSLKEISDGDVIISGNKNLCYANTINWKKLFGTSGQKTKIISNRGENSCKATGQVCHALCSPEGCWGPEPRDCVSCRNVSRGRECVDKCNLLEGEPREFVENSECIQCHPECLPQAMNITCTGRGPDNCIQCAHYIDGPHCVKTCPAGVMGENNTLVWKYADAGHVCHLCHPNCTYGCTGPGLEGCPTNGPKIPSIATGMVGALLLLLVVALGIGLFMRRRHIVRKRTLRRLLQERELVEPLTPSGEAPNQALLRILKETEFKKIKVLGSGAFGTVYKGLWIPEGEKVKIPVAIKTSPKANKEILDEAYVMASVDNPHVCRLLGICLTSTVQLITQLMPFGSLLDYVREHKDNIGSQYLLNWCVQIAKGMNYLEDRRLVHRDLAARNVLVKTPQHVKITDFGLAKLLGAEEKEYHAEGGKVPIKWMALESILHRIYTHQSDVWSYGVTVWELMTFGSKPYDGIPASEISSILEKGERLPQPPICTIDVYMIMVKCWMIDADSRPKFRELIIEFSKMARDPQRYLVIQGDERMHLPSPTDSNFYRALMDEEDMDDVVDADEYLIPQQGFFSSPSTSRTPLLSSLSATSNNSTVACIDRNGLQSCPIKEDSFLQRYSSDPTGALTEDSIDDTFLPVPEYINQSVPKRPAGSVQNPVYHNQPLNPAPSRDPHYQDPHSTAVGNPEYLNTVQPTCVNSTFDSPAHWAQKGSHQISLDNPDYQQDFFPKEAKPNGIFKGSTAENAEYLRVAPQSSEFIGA
Summary of the method: as §1

[1] = IC50 L858R/C797S (nM) 100 μM ATP, 100 μM ATP
[2] = Km ATP, read-out: IC50 L858R/C797S (nM) Km ATP
[3] = IC50 WT (nM) 100 μM ATP, 100 μM ATP
[4] = Km ATP, read-out: IC50 WT (nM) Km ATP
[5] = IC50 L858R/T790M/C797S (nM) 100 μM ATP, 100 μM ATP
[6] = Km ATP, read-out: IC50 L858R/T790M/C797S (nM) Km ATP
[7] = IC50 del19/T790M/C797S (nM) 100 μM ATP, 100 μM ATP
[8] = Km ATP, read-out: IC50 del19/T790M/C797S (nM) Km ATP
[9] = IC50 del19/C797S (nM) 100 μM ATP, 100 μM ATP
[10] = Km ATP, read-out: IC50 del19/C797S (nM) Km ATP
[11] = Km ATP, read-out: IC50 L858R/C797S, Km ATP
[12] = Km ATP, read-out: IC50 WT, Km ATP
[13] = Km ATP, read-out: IC50 L858R/T790M/C797S, Km ATP
[14] = Km ATP, read-out: IC50 del19/T790M/C797S, Km ATP
[15] = Km ATP, read-out: IC50 del19/C797S, Km ATP

Sequence of EGFR L858R/C797S (P00533 25-1210 C797S/L858R): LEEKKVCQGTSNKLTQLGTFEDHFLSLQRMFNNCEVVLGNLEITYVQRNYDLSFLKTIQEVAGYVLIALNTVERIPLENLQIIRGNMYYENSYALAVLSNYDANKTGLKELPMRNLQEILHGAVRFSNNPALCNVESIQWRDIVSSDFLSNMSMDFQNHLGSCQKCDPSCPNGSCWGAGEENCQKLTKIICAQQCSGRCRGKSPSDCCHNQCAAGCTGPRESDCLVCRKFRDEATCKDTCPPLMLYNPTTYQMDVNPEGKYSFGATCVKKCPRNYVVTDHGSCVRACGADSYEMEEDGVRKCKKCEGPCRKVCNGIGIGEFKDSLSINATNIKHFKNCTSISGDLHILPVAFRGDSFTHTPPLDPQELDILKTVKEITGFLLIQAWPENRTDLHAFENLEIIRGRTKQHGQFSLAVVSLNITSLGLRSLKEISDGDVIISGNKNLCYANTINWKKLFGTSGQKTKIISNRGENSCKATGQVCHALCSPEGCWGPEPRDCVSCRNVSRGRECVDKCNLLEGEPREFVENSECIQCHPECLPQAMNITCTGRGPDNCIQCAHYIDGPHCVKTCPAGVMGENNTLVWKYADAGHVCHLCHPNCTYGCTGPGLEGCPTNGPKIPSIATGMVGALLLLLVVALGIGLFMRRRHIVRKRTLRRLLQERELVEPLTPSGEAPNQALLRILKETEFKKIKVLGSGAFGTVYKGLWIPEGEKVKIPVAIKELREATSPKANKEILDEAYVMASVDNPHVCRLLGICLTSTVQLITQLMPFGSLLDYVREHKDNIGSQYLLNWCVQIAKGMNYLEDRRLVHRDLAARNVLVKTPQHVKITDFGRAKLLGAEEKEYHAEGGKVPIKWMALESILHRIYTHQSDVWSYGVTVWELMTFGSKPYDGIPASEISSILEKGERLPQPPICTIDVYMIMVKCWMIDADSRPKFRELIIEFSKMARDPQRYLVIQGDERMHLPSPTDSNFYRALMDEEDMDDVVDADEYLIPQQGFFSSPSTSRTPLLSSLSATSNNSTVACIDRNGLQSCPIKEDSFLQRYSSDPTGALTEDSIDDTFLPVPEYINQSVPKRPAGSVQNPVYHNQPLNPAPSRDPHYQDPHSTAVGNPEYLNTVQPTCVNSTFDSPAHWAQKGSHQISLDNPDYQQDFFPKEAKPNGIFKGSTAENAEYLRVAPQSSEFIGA

Row | Structure (SMILES) | IC50 (EGFR L858R/C797S; [1]) [nM] | IC50 (EGFR L858R/C797S; [2]) [nM] | IC50 (EGFR wildtype (WT); [3]) [nM] | IC50 (EGFR wildtype (WT); [4]) [nM] | IC50 (EGFR L858R/T790M/C797S; [5]) [nM] | IC50 (EGFR L858R/T790M/C797S; [6]) [nM] | IC50 (EGFR del19/T790M/C797S; [7]) [nM] | IC50 (EGFR del19/T790M/C797S; [8]) [nM] | IC50 (EGFR del19/C797S; [9]) [nM] | IC50 (EGFR del19/C797S; [10]) [nM] | IC50 (EGFR L858R/C797S; [11]) [nM] | IC50 (EGFR wildtype (WT); [12]) [nM] | IC50 (EGFR L858R/T790M/C797S; [13]) [nM] | IC50 (EGFR del19/T790M/C797S; [14]) [nM] | IC50 (EGFR del19/C797S; [15]) [nM] | IC50 (EGFR L858R/C797S; IC50 L858R/C797S, 100 μM ATP) [nM] | IC50 (EGFR wildtype (WT); IC50 WT, 100 μM ATP) [nM] | IC50 (EGFR L858R/T790M/C797S; IC50 L858R/T790M/C797S, 100 μM ATP) [nM] | IC50 (EGFR del19/T790M/C797S; IC50 del19/T790M/C797S, 100 μM ATP) [nM] | IC50 (EGFR del19/C797S; IC50 del19/C797S, 100 μM ATP) [nM]
1 | Cn1ccc(-c2cnc(Nc3ccnc(-c4cnn(S(=O)(=O)C5CC5)c4)n3)cc2NC[C@H]2C[C@H](CO)C2)n1 [Example 223, ((1r,3r)-3-(((2-((2-(1-(Cyclopropylsulfonyl)-1H-pyrazol-4-yl)pyrimidin-4-yl)amino)-5-(1-methyl-1H-pyrazol-3-yl)pyridin-4-yl)amino)methyl)cyclobutyl)methanol] | 5.9 | 0.7 | 3020 | 3.2 | 0.2 | 0.1 | 0.2 | 0.2 | 0.6 | 0.3 | – | – | – | – | – | – | – | – | – | –
2 | Cn1ccc(-c2cnc(Nc3ccnc(-c4cnn(S(=O)(=O)C5CC5)c4)n3)cc2N[C@H]2CC[C@H](CCO)CC2)n1 [Example 134, 2-((1r,4r)-4-((2-((2-(1-(Cyclopropylsulfonyl)-1H-pyrazol-4-yl)pyrimidin-4-yl)amino)-5-(1-methyl-1H-pyrazol-3-yl)pyridin-4-yl)amino)cyclohexyl)ethan-1-ol] | 9.2 | 0.4 | > 10000 | 4.4 | 0.5 | 0.1 | 0.5 | 0.2 | 0.8 | 0.6 | – | – | – | – | – | – | – | – | – | –
3 | C[C@]1(O)CC[C@@H](Nc2cc(Nc3ccnc(-c4cnn(S(=O)(=O)C5CC5)c4)n3)ncc2-c2cc3n(n2)CCCC3)CC1 [Example 59, (1s,4s)-4-((2-((2-(1-(Cyclopropylsulfonyl)-1H-pyrazol-4-yl)pyrimidin-4-yl)amino)-5-(4,5,6,7-tetrahydropyrazolo[1,5-a]pyridin-2-yl)pyridin-4-yl)amino)-1-methylcyclohexan-1-ol] | – | 0.6 | 368 | – | 0.6 | 0.3 | 0.8 | 0.7 | 1.9 | 1 | – | – | – | – | – | – | – | – | – | –
4 | Cc1nn(CC(F)(F)F)cc1-c1cc(Nc2ncc(-c3cc(C(F)(F)F)n(C)n3)c(N[C@H]3CC[C@@](C)(O)CC3)n2)ccn1 [Example 369, (1s,4s)-1-Methyl-4-((2-((2-(3-methyl-1-(2,2,2-trifluoroethyl)-1H-pyrazol-4-yl)pyridin-4-yl)amino)-5-(1-methyl-5-(trifluoromethyl)-1H-pyrazol-3-yl)pyrimidin-4-yl)amino)cyclohexan-1-ol] | – | – | – | – | – | – | – | – | – | – | 10.1 | 72.7 | 1 | 3.1 | 8.1 | – | – | – | – | –
5 | Cn1nc(-c2cnc(Nc3ccnc(-c4cnn(S(=O)(=O)C5CC5)c4)n3)cc2N[C@H]2CCC[C@H](CO)C2)cc1C(F)(F)F [Example 260, ((1S,3S)-3-((2-((2-(1-(Cyclopropylsulfonyl)-1H-pyrazol-4-yl)pyrimidin-4-yl)amino)-5-(1-methyl-5-(trifluoromethyl)-1H-pyrazol-3-yl)pyridin-4-yl)amino)cyclohexyl)methanol] | 59.9 | 2.7 | 5230 | 27.1 | 4.3 | 3.8 | 9.8 | 8.6 | 8.7 | 5 | – | – | – | – | – | – | – | – | – | –
6 | Cn1nc(-c2cnc(Nc3ccnc(N4CCC(O)C(F)(F)C4)n3)cc2NC2CCC(C)(O)CC2)cc1C(F)(F)F (stereo not shown) [Example 353, 3,3-Difluoro-1-(4-((4-(((1s,4s)-4-hydroxy-4-methylcyclohexyl)amino)-5-(1-methyl-5-(trifluoromethyl)-1H-pyrazol-3-yl)pyridin-2-yl)amino)pyrimidin-2-yl)piperidin-4-ol] | – | – | – | – | – | – | – | – | – | – | 15.7 | 175 | 0.3 | 0.7 | 133 | 275 | > 10000 | 0.8 | 0.9 | 252
7 | CC(C)Nc1cc(Nc2ccnc(-c3cnn(S(=O)(=O)C4CC4)c3)n2)ncc1-c1csc(C(C)(C)O)n1 [Example 92, 2-(4-(6-((2-(1-(Cyclopropylsulfonyl)-1H-pyrazol-4-yl)pyrimidin-4-yl)amino)-4-(isopropylamino)pyridin-3-yl)thiazol-2-yl)propan-2-ol] | 103 | – | > 10000 | – | 7.7 | – | 2.6 | – | 10 | – | – | – | – | – | – | – | – | – | – | –
